Literature values as cited in patent US20050147578A1, “Topical cosmetic composition having a natural plant active ingredient and method of using same” (Avon Products, Inc., priority 2001, published 2005).

Tested on: Heat shock 70 protein

With `O=[As]O` [Sodium arsenite, sodium arsenite] as the compound, how does the “production of heat shock protein (known effect of positive control)” value read?
The value was “stimulate the production of heat shock protein”.
